Data taken from publication PMC4770093, “The role of kinetic context in apparent biased agonism at GPCRs” (Nature Communications, 2016).
Several values for one entry are separate records, joined by “and”; a condition that tells them apart may be missing. Equal values may be shown once.

Tests used:
D2LR [1] = molecular target: T1, D2LR (Homo sapiens, UniProt P14416); experiment: biochemical
Protocol: The cells were harvested in PBS containing 2 mM EDTA and centrifuged at 300 g for 3 min. The resulting pellet was resuspended in ice-cold assay buffer (20 mM HEPES, 100 mM NaCl, 6 mM MgCl2, 1 mM EGTA and 1 mM EDTA pH 7.4) and the centrifugation step was repeated. The intact cell pellet was then resuspended in assay buffer and homogenized using a Polytron homogenizer. After centrifugation (1,000 g, 10 min), the pellet was discarded and the supernatant was recentrifuged at 30,000 g for 1 h at 4 °C using a Sorvall Evolution RC ultracentrifuge (Thermo Scientific). The resulting pellet was resuspended in assay buffer and stored in 250 μl aliquots at −80 °C. Membrane protein concentration was determined using the method of Bradford.
All radioligand binding experiments were conducted at 37 °C in a 1-ml reaction volume in assay buffer (20 mM HEPES, 100 mM NaCl, 6 mM MgCl2, 1 mM EGTA and 1 mM EDTA pH 7.4) containing 100 μM GppNHp and 0.1% ascorbic acid. In all cases, nonspecific binding was determined in the presence of 10 μM haloperidol. […] Filter-bound radioactivity was measured by scintillation spectrometry after the addition of 3.5 ml of Ultima Gold (PerkinElmer) using a Tri-Carb 2900TR liquid scintillation counter (PerkinElmer).
where Y denotes the percentage-specific binding, Top and Bottom denote the maximal and minimal asymptotes, respectively, IC50 denotes the X-value when the response is midway between Bottom and Top, and nH denotes the Hill slope factor. IC50 values obtained from the inhibition curves were converted to Ki values using the Cheng and Prusoff equation[61].

D2LR [2] = molecular target: T1, D2LR; experiment: Quantification of biased agonism between pathways (operational model, LogBias); format: cell-based; set-up: expressed in transfected cells
Excerpt: where Top and Bottom represent the maximal and minimal asymptote of the dose–response curve, [A] is the molar concentration of agonist and EC50 is the molar concentration of agonist required to give a response half way between bottom and top. Dose–response data were fitted to the following form of the operational model of agonism[12] to allow the quantification of biased agonism
where Em is the maximal possible response of the system, Basal is the basal level of response, KA represents the equilibrium dissociation constant of the agonist (A) and τ is an index of the signalling efficacy of the agonist that is defined as RT/KE, where RT is the total number of receptors and KE is the coupling efficiency of each agonist-occupied receptor, and n is the slope of the transducer function that links occupancy to response. The analysis assumes that the transduction machinery used for a given cellular pathway are the same for all agonists, such that the Em and transducer slope (n) are shared between agonists. Data for all compounds for each pathway were fit globally, to determine values of KA and τ. Biased agonism was quantified as previously described. […] The relative bias can then be calculated for each agonist at the two different signalling pathways by subtracting the Δlog(τ/KA) of one pathway from the other to give a ΔΔlog(τ/KA) value, which is a measure of bias. […] All affinity (pKi or pKA), potency (pEC50) and transduction ratio (log(τ/KA)) parameters were estimated as logarithms. When fold changes in bias are described, this was calculated by converting values of ΔΔlog(τ/KA) to the corresponding antilog value. […] Thus, as the application of t-tests and analyses of variance assume Gaussian distribution, estimating the parameters as logarithms allows valid statistical comparison. All results are expressed as the mean±s.e.m. As such, we performed a Brown–Forsythe test (Graphpad prism 6) to assure ourselves of equal variance when such parameters are compared.

D2LR [3] = molecular target: T1, D2LR; experiment: β-Arrestin-2 recruitment (BRET); format: cell-based; set-up: expressed in transfected cells
Protocol: β-Arrestin-2 recruitment. […] To assess β-arrestin-2 recruitment to the D2LR, the cells were transfected with 1 μg Rluc8-tagged D2LR, 4 μg YFP–β-arrestin-2 and 2 μg GRK2. […] The cells were incubated with Coelenterazine (Promega) at a final concentration of 5 μM for 5 min, followed by stimulation with the agonists for an additional 5 min before the BRET readings were captured.

D2LR [4] = molecular target: T1, D2LR; experiment: Inhibition of forskolin-induced cAMP production (BRET CAMYEL biosensor); conditions: for EC50: pEC50 cAMP; for Emax: relative to the maximal response of ropinirole; for Inhibition of cAMP production measured using a CAMYEL BRET biosensor, Net BRET: single experiments n = 1, 2, 3
Protocol: Flp-In-CHO cells stably expressing the D2LR were seeded at a density of 2,000,000 cells per 10-cm dish and were transfected the following day using polyethylenimine as the transfection reagent. The cells were transfected with 3 μg CAMYEL, to allow the detection of cAMP levels within the cells. Twenty-four hours after transfection, the cells were plated into 96-well CulturPlates (PerkinElmer) and grown overnight. The cells were equilibrated in Hank's balanced salt solution at 37 °C (or 25 °C when indicated) before starting the experiment. The cells were co-stimulated with the agonists and 10 μM forskolin for the indicated timeframes when the BRET readings were captured. Coelenterazine (Promega) was added at a final concentration of 5 μM at least 3 min before measurement. […] Net BRET was determined by subtraction of the vehicle control co-added with 10 μM forskolin.

D2LR [5] = molecular target: T1, D2LR; experiment: GαoB G protein activation (BRET); format: cell-based; set-up: expressed in transfected cells; conditions: for Emax: relative to the maximal response of ropinirole;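 on all read-outs here: Flp-In-CHO cells stably expressing D2LR, transiently transfected, agonist-stimulated in HBSS at 37 °C, net BRET read after coelenterazine, vehicle control subtracted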
Protocol: G protein activation. Flp-In-CHO cells stably expressing the D2LR were seeded at a density of 2,000,000 cells per 10-cm dish and were transfected the following day using polyethylenimine as the transfection reagent. […] Twenty-four hours after transfection, the cells were plated into 96-well CulturPlates (PerkinElmer) and grown overnight. The cells were equilibrated in Hank's balanced salt solution at 37 °C before starting the experiment. The cells were stimulated with the agonists for the indicated timeframes when the BRET readings were captured. Coelenterazine (Promega) was added at a final concentration of 5 μM at least 3 min before measurement. […] Net BRET was determined by subtraction of the vehicle control from the agonist-induced response.

[6] = 5 minute timepoint, dopamine as reference agonist

T1 sequence (P14416 whole entry): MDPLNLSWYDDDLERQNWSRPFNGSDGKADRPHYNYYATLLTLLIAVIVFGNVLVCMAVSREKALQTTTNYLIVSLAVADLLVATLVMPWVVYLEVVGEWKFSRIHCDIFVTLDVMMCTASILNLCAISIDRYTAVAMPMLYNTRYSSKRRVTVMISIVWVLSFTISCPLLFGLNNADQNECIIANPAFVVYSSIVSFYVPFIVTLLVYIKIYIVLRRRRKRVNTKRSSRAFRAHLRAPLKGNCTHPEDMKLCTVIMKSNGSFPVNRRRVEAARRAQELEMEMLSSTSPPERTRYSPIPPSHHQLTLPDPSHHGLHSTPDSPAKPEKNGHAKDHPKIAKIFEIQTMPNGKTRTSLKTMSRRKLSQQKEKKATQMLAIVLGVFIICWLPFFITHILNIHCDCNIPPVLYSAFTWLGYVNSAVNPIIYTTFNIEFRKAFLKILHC

## CCCN(CCC)CCc1cccc2c1CC(=O)N2 [Ropinirole, ropinirole]
D2LR [1]
  Ki: 2510 nM
D2LR [2]
  LogBias CI – pERK1/2: -0.11 ± 0.10
  LogBias Gαi1 – pERK1/2: -0.31 ± 0.15
  LogBias GαoB – pERK1/2: -0.04 ± 0.14
  LogBias cAMP – pERK1/2: -0.27 ± 0.10
  LogBias β-arr2 – pERK1/2: 0.26 ± 0.21
D2LR [2]; [6]
  LogBias Gαi1 – CI: -0.19 ± 0.15
  LogBias Gαi1 – GαoB: -0.26 ± 0.18
  LogBias Gαi1 – cAMP: -0.03 ± 0.15
  LogBias GαoB – CI: 0.07 ± 0.13
  LogBias GαoB – cAMP: 0.23 ± 0.13
  LogBias cAMP – CI: -0.16 ± 0.09
  LogBias β-arr2 – CI: 0.38 ± 0.21
  LogBias β-arr2 – Gαi1: 0.57 ± 0.24
  LogBias β-arr2 – GαoB: 0.31 ± 0.23
  LogBias β-arr2 – cAMP: 0.54 ± 0.21
D2LR [3]
  Log(τ/KA) β-arrestin2: 6.48 ± 0.15
  ΔLog(τ/KA) β-arrestin2: 0.14 ± 0.20
D2LR [4]
  Log(τ/KA) cAMP: 7.67 ± 0.04
  ΔLog(τ/KA) cAMP: -0.39 ± 0.06
D2LR [4]; 2 min
  EC50: 9.55 nM
D2LR [4]; 5 min
  EC50: 22.4 nM
D2LR [4]; 10 min
  EC50: 41.7 nM
D2LR [4]; 15 min
  EC50: 42.7 nM
D2LR [4]; 30 min
  EC50: 34.7 nM
D2LR [4]; 45 min
  EC50: 97.7 nM
D2LR [4]; 60 min
  EC50: 186 nM
D2LR [4]; 75 min
  EC50: 107 nM
D2LR [4]; 90 min
  EC50: 174 nM
D2LR [4]; read-out: Emax cAMP, 2 min
  Emax: 100%
D2LR [4]; read-out: Emax cAMP, 5 min
  Emax: 100%
D2LR [4]; read-out: Emax cAMP, 10 min
  Emax: 100%
D2LR [4]; read-out: Emax cAMP, 15 min
  Emax: 100%
D2LR [4]; read-out: Emax cAMP, 30 min
  Emax: 100%
D2LR [4]; read-out: Emax cAMP, 45 min
  Emax: 100%
D2LR [4]; read-out: Emax cAMP, 60 min
  Emax: 100%
D2LR [4]; read-out: Emax cAMP, 75 min
  Emax: 100%
D2LR [4]; read-out: Emax cAMP, 90 min
  Emax: 100%
D2LR [4]; time 2.21667 mins
  Inhibition of cAMP production measured using a CAMYEL BRET biosensor, Net BRET: 0.139 and 0.1472 and 0.1432
D2LR [4]; time 2.58333 mins
  Inhibition of cAMP production measured using a CAMYEL BRET biosensor, Net BRET: 0.1633 and 0.1578 and 0.1547
D2LR [4]; time 2.95 mins
  Inhibition of cAMP production measured using a CAMYEL BRET biosensor, Net BRET: 0.1708 and 0.1681 and 0.157
D2LR [4]; time 3.31667 mins
  Inhibition of cAMP production measured using a CAMYEL BRET biosensor, Net BRET: 0.1659 and 0.1812 and 0.1714
D2LR [4]; time 3.68333 mins
  Inhibition of cAMP production measured using a CAMYEL BRET biosensor, Net BRET: 0.1811 and 0.1789 and 0.1805
D2LR [4]; time 4.05 mins
  Inhibition of cAMP production measured using a CAMYEL BRET biosensor, Net BRET: 0.191 and 0.1937 and 0.1853
D2LR [4]; time 4.41667 mins
  Inhibition of cAMP production measured using a CAMYEL BRET biosensor, Net BRET: 0.1979 and 0.1996 and 0.185
D2LR [4]; time 4.78333 mins
  Inhibition of cAMP production measured using a CAMYEL BRET biosensor, Net BRET: 0.2031 and 0.2011 and 0.1899
D2LR [4]; time 5.15 mins
  Inhibition of cAMP production measured using a CAMYEL BRET biosensor, Net BRET: 0.2133 and 0.1934 and 0.1923
D2LR [4]; time 5.51667 mins
  Inhibition of cAMP production measured using a CAMYEL BRET biosensor, Net BRET: 0.202 and 0.1988 and 0.1873
D2LR [4]; time 5.88333 mins
  Inhibition of cAMP production measured using a CAMYEL BRET biosensor, Net BRET: 0.214 and 0.1997 and 0.2002
D2LR [4]; time 6.25 mins
  Inhibition of cAMP production measured using a CAMYEL BRET biosensor, Net BRET: 0.2138 and 0.204 and 0.1926
D2LR [4]; time 6.61667 mins
  Inhibition of cAMP production measured using a CAMYEL BRET biosensor, Net BRET: 0.2113 and 0.1972 and 0.1923
D2LR [4]; time 6.98333 mins
  Inhibition of cAMP production measured using a CAMYEL BRET biosensor, Net BRET: 0.2032 and 0.2012 and 0.1937
D2LR [4]; time 7.35 mins
  Inhibition of cAMP production measured using a CAMYEL BRET biosensor, Net BRET: 0.2141 and 0.1963 and 0.1945
D2LR [4]; time 7.71667 mins
  Inhibition of cAMP production measured using a CAMYEL BRET biosensor, Net BRET: 0.2104 and 0.2011 and 0.1956
D2LR [4]; time 8.08333 mins
  Inhibition of cAMP production measured using a CAMYEL BRET biosensor, Net BRET: 0.2099 and 0.2149 and 0.1931
D2LR [4]; time 8.45 mins
  Inhibition of cAMP production measured using a CAMYEL BRET biosensor, Net BRET: 0.2126 and 0.2072 and 0.1885
D2LR [4]; time 8.81667 mins
  Inhibition of cAMP production measured using a CAMYEL BRET biosensor, Net BRET: 0.2189 and 0.2083 and 0.199
D2LR [4]; time 9.18333 mins
  Inhibition of cAMP production measured using a CAMYEL BRET biosensor, Net BRET: 0.2207 and 0.2105 and 0.1943
D2LR [4]; time 9.55 mins
  Inhibition of cAMP production measured using a CAMYEL BRET biosensor, Net BRET: 0.212 and 0.2054 and 0.2079
D2LR [4]; time 9.91667 mins
  Inhibition of cAMP production measured using a CAMYEL BRET biosensor, Net BRET: 0.2149 and 0.2049 and 0.2075
D2LR [4]; time 10.2833 mins
  Inhibition of cAMP production measured using a CAMYEL BRET biosensor, Net BRET: 0.2152 and 0.2111 and 0.2029
D2LR [4]; time 10.65 mins
  Inhibition of cAMP production measured using a CAMYEL BRET biosensor, Net BRET: 0.2279 and 0.2163 and 0.2038
D2LR [4]; time 11.0167 mins
  Inhibition of cAMP production measured using a CAMYEL BRET biosensor, Net BRET: 0.2157 and 0.2032 and 0.2052
D2LR [4]; time 11.3833 mins
  Inhibition of cAMP production measured using a CAMYEL BRET biosensor, Net BRET: 0.2205 and 0.2041 and 0.2034
D2LR [4]; time 11.75 mins
  Inhibition of cAMP production measured using a CAMYEL BRET biosensor, Net BRET: 0.2254 and 0.2085 and 0.1983
D2LR [4]; time 12.1167 mins
  Inhibition of cAMP production measured using a CAMYEL BRET biosensor, Net BRET: 0.2217 and 0.2066 and 0.2006
D2LR [4]; time 12.4833 mins
  Inhibition of cAMP production measured using a CAMYEL BRET biosensor, Net BRET: 0.2324 and 0.2048 and 0.2074
D2LR [4]; time 12.85 mins
  Inhibition of cAMP production measured using a CAMYEL BRET biosensor, Net BRET: 0.2281 and 0.2112 and 0.2008
D2LR [4]; time 13.2167 mins
  Inhibition of cAMP production measured using a CAMYEL BRET biosensor, Net BRET: 0.2271 and 0.2125 and 0.2083
D2LR [4]; time 13.5833 mins
  Inhibition of cAMP production measured using a CAMYEL BRET biosensor, Net BRET: 0.2211 and 0.208 and 0.2059
D2LR [4]; time 13.95 mins
  Inhibition of cAMP production measured using a CAMYEL BRET biosensor, Net BRET: 0.2209 and 0.2042 and 0.208
D2LR [4]; time 14.3167 mins
  Inhibition of cAMP production measured using a CAMYEL BRET biosensor, Net BRET: 0.2319
D2LR [5]
  Log(τ/KA) GαoB activation: 7.08 ± 0.08
  pEC50 Gao: 7.33
  ΔLog(τ/KA) GαoB activation: -0.16 ± 0.11
D2LR [5]; 2 min
  EC50: 107 nM
  Emax: 100%
D2LR [5]; 5 min
  EC50: 95.5 nM
  Emax: 100%
D2LR [5]; 10 min
  EC50: 67.6 nM
  Emax: 100%
D2LR [5]; 15 min
  Emax: 100%
D2LR [5]; 30 min
  EC50: 30.9 nM
  Emax: 100%
D2LR [5]; 45 min
  EC50: 41.7 nM
  Emax: 100%
D2LR [5]; 60 min
  EC50: 51.3 nM
  Emax: 100%
D2LR [5]; 75 min
  EC50: 39.8 nM
  Emax: 100%
D2LR [5]; 90 min
  EC50: 43.7 nM
  Emax: 100%
D2LR [5]; time points from 2 to 90 min
  change in potency over time in the GαoB activation assay: no change in potency
